In one test the test system is myocardial superoxide. As to the kind of experiment: Myocardial superoxide by lucigenin-enhanced chemiluminescence. The test is classed as in vivo, rat. The note with it: for decline of O2^− generation on pre-incubation of extracts: 100 μM BH4. Here is the method: (§1) Adult Wistar rats received FA (10 mg/day unless otherwise stated) or placebo by oral gavage for 7-days prior to performing the ischemia/reperfusion (IR) experiment. A total of 131 rats were used, the sample size reflecting the requirement for multiple assays that could not be performed in each animal, but were rather obtained in different subsets of the total group. Animals were anesthetized (pentobarbital 60 mg/kg), intubated via tracheotomy, and ventilated (Harvard Apparatus, Mass.). ECG was monitored and temperature maintained at 37.5° C. The left anterior artery was exposed through the 4-5th intercostal space and a suture placed around it, and transient coronary artery ligation performed for 30 min with (n=85) or without (n=46) 90 min reperfusion. In one subgroup of reperfused animals (n=9), FA was provided 10 minutes after the onset of LAD occlusion (i.e. 20 minutes before the onset of reperfusion), delivered as an IV-bolus.
(§2) Superoxide was assessed by lucigenin (5 μM)-enhanced chemiluminescence (Beckman LS60001C, n=23)^22 and fluorescent microtopography (dichlorodihydro-fluorescein diacetate, DCF, n=16) and dihydroethidium, DHE, n=24) (Gupte et al., 2005). The direct anti-oxidants effects of folic acid were analysed using an in vitro xanthine/xanthine oxidase system (Antoniades et al., 2006) and compared with Tempol.

For test [1], the system named is Adult Wistar rats, coronary artery ligation. As to the kind of experiment: Regional myocardial blood flow by microspheres. The settings on record: FA pre-treatment. The test is classed as in vivo, rat. The procedure: as §1
Regional myocardial blood flow was assessed (n=12) by nuclear-activated microspheres ([…], BioPal, Worcester, MA) injected in the left atrium (0.3 ml of 2.5*10^6 spheres/ml) at baseline and after 5 and 30 min of ischemia (Reinhardt et al., 2001). Total counts per minute (cpm) were normalized to weight and results from the ischemic zone normalized to the remote region to provide relative blood flow before and during ischemia.

The subject of test [2] is isolated hearts of adult Wistar rats. As to the kind of experiment: In vitro IR model, isolated perfused hearts: infarct size and LDH. Further details: species or system rat. The procedure:
(§3) Adult Wistar rats (n=28) were anesthetized (pentobarbital 60 mg/kg), and hearts rapidly excised and mounted onto a retrograde perfusion system (Emka, Paris, France) using warmed, oxygenated buffered Krebs-Henseleit solution at constant perfusion pressure (75 mmHg). Hearts were paced at 300 bpm, and maintained in an unloaded state. Coronary flow was measured by an in-line ultrasonic flow probe (Transonic Systems, Ithaca, N.Y., USA). After 30 min equilibration, vasodilators drugs (bradykinin and sodium nitroprusside) were infused by bolus injection (50 μl, 10^−8-10^−5.5 M i.c.) and coronary flow reserve assessed at constant perfusion pressure. After re-establishing baseline, hearts received FA (4.5 10^−6M i.c.) or vehicle for 30 min. Afterwards the hearts were subjected to 40-min zero coronary flow followed by 40 min of reperfusion. Coronary effluent was collected, concentrated (Sartorius-Sipan, Lier, Belgium) and analysed for lactate dehydrogenase (Vitros 950AT, O. C. D., Beerse, Belgium). Coronary vasodilator responses to the same two agents were repeated following reperfusion.
(§4) Infarct size was assessed in 31 rats, with area at risk (AAR) determined by negative staining with Evans blue injected during coronary occlusion, and subsequent staining with TTC to detect myocardial necrosis. LV (free wall+whole septum), AAR (neg Evan's Blue) and area of necrosis (TTC-white) were measured by planimetry (Soft Imaging system GmbH, Analysis pro version 3.00), and digitized images subjected to equivalent background subtraction, brightness, and contrast enhancement for improved clarity and sharpness. For in vitro studies, TTC staining was not preceded by Evans' blue staining because global ischemia was created. Contraction band necrosis was assessed in vivo rat hearts (n=22) fixed in Carnoy solution and stained with Masson's trichrome. Serial adjacent fields were examined throughout the full LV to calculate the percent myocardium with contraction bands present. Similar analysis was performed for TUNEL-positivity (Chemicon Intern, Temecula, Calif.), also expressed as percent LV area.

The subject of test [3] is Adult Wistar rats, coronary artery ligation. Description: Open chest echocardiography during LAD occlusion. The settings on record: FA pre-treatment; at 30 min ischemia. The test is classed as in vivo, rat. The procedure:
as §1
(§5) LV function was assessed in vivo by pressure-volume loops (n=14) during both ischemia and following reperfusion. […] Open chest myocardial anterior wall motion was also measured using a Sequoia—Acuson C256 equipped with 15 MHz linear transducer (Sequoia C256 Echocardiography System, Acuson Corporation, Mountain View, Calif.) at the parasternal view of the left ventricle chamber as described.

Test [4] has the same test system. Description: HPLC analysis of high energy phosphate metabolism in anterior wall samples. The test is classed as in vivo, rat. The settings on record: FA pre-treatment; 30 min ischemia, versus controls. Here is the method: as §1, with “In one subgroup of reperfused animals (n=9), FA was provided 10 minutes after the onset of LAD occlusion (i.e. 20 minutes before the onset of reperfusion), delivered as an IV-bolus.” left out
Snap frozen samples (n=24) from the anterior wall (±FA pre-treatment; ±30 min ischemia, no reperfusion) were de-proteinized and subjected to HPLC analysis of water-soluble low-molecular weight compounds reflecting tissue oxid-oreductive and energy status. High-energy phosphates, oxypurines (hypoxanthine, xanthine, and uric acid), nucleosides (inosine and adenosine), malondialdehyde, and reduced and oxidized glutathione were measured by ion-pairing HPLC as described (Takimoto et al., 2005).

The test system is the same in test [5]. As to the kind of experiment: In vivo ischemia/reperfusion model, pressure-volume loop hemodynamics. Also noted: species or system rat. The note with it: FA 10 mg/d oral pre-treatment 7 days; 30 min LAD occlusion. Here is the method:
as §1, §5

The test system is the same in test [6]. As to the kind of experiment: Ischemia and reperfusion arrhythmia, in vivo IR. Further details: species or system rat. Here is the method:
as §1

The subject of a further test is eNOS. Description: eNOS monomer/dimer formation and NOS enzymatic activity in IR tissue. The test is classed as in vivo, rat. Here is the method: as §1
SDS-resistant eNOS dimers and monomers were assayed on ischemia/reperfusion-tissue (n=16) using low temperature SDS-PAGE as previously described (Takimoto. et al., 2005) NOS enzymatic activity was assessed by arginine to citrulline conversion assay from extracts obtained from frozen myocardium (n=15) (Takimoto. et al., 2005).

The test system of test [7] is Adult Wistar rats, coronary artery ligation. As to the kind of experiment: Infarct size analysis and histology, in vivo IR. Also noted: species or system rat. The procedure:
as §1, §4

Test [8] deals with superoxide generated by xanthine/xanthine oxidase. As to the kind of experiment: In vitro xanthine/xanthine oxidase O2− generating system. The test is classed as biochemical. The settings on record: lucigenin-enhanced chemiluminescence, FIG. 5F. Here is the method:
as §2

The test system of test [9] is isolated hearts of adult Wistar rats. Description: Coronary flow and vasodilator response in isolated hearts. Further details: species or system rat. Here is the method: as §3
Another test relates to serum homocysteine. The note with it: achievable with 0.8 mg/d; cited from earlier work.
Setting [10] is: FA 10 mg i.v. after 10 min of coronary occlusion.

Regarding `C[C@H](O)[C@H](O)[C@H]1CNc2nc(N)[nH]c(=O)c2N1` [BH4, tetrahydrobiopterin], the “decline of O2^− generation on pre-incubation of extracts” value worked out at 52.1±11.3% in the test on myocardial superoxide (extracts of FA pre-treated hearts) and 90.9±0.7% in the test with myocardial superoxide (extracts of vehicle treated IR hearts).
In the case of `Nc1nc2ncc(CNc3ccc(C(=O)N[C@@H](CCC(=O)O)C(=O)O)cc3)nc2c(=O)[nH]1` [FA, folic acid], the “ratio of ischemic/remote zone myocardial perfusion, decline” value in test [1] (after 5 min of LAD ligation) is listed as −77.7±5.1%. The “flow compared to the remote region” value in [1] (at 30 minutes of ischemia) is listed as −78.4±9.3%. Besides, the “infarct size in isolated hearts” value in [2] (FA 4.5 10^−6M i.c. 30 min, 40 min zero flow, 40 min reperfusion) came to 7.7±2.8%. Besides, the “reduction of myocardial necrosis in hearts studied in vitro” value in test [2] (FA pre-treatment, FIG. 4D) was around 80%. Besides, in [2] (FA pre-treatment, after ischemia-reperfusion), the “lactate dehydrogenase in the coronary effluent” value is given as “less lactate dehydrogenase”. Moreover, in test [3], the Ejection fraction is 72.8±1.2% and the anterior-septal thickening stood at 37.±5.3%. For the same molecule, the “myocardial ATP and ADP during ischemia” value in test [4] is given as “maintained at higher levels”. In addition, the “Peak LV pressure (systolic blood pressure) change with LAD occlusion” value in test [5] is reported as “changed little”. For the same molecule, the reperfusion arrhythmia occurrence entry in test [6] (FA treated) is listed as “no FA treated animal”. Moreover, in [6] (FA-treated), the “lethal ventricular arrhythmia triggered by ischemia, % of rats” value came to 8.3%. The “eNOS ratio of dimer/monomer” value with eNOS (FA-pre-treated IR hearts) is on record as “near normal”. For the same molecule, the “NOS activity, arginine-citrulline conversion” value in the test on eNOS (treated vs. non-treated hearts, p=0.08) is “not significant improved”. Also, in test [7] (setting [10]), the “TUNEL staining, % LV” value was determined as 4.3±1.3 % LV; the “area at risk (AAR)” value came out at 52.4±5.5%; the “contraction band necrosis, % LV” value stood at 5.1±0.7 % LV. In [7] (FA 10 mg i.v. after 10 min of coronary occlusion, n=5), the “infarct size relative to AAR” value was found to be 3.0±2.2%. In addition, in test [7] (oral FA 10 mg/d pre-treatment 7 days, 30 min ischemia, 90 min reperfusion), the “infarct size, % area at risk” value amounted to 3.8±1.2%. In addition, in test [7] (oral FA pre-treatment, IR), the “Reperfusion contraction band necrosis, % of the LV” value is 4.6%±1.2 and the “TUNEL-positive myocytes, % of LV fields” value amounted to 4.3±1.3%. Moreover, the “infarct size with lower doses” value in [7] (pre-treatment by 40% and 10% of the principal FA dose (1 and 4 mg/d)) was “decline in infarct size occurred”. For the same molecule, the direct anti-oxidant effect entry in test [8] is listed as “substantial anti-oxidant effects”. The “Bradykinin induced maximal rise in coronary flow” value in test [9] (after IR, hearts pre-treated with FA) is 122.0±11.3%. In [9] (isolated hearts), the “coronary flow after ischemia” value amounted to 8.9 ± 1.4 mL/min and the “coronary flow at baseline” value amounted to 11.4 ± 13.8 mL/min. The “decrease in serum homocysteine” value with serum homocysteine is 3 µmol/L. Besides, the “decline of myocardial superoxide (lucigenin chemiluminescence)” value in the test with myocardial superoxide (FA pre-treated animals, during ischemia and after 90 minutes reperfusion) is around 50%.
